10 compounds from ChEMBL document CHEMBL1151041, “Synthesis and antitumor evaluation of 2-oxycarbonylpaclitaxels (paclitaxel-2-carbonates)” (Bioorg Med Chem Lett, 1994) can be followed below.

The subject of one test is HCT-116. Nature of the test: Compound was tested for its cytotoxicity against human colon cancer cell line HCT116. The test is classed as functional, cell-based.
Test [1] is filed under the species Rattus norvegicus. Nature of the test: Tested for tubulin polymerization assay in rat; Inactive. The test is classed as functional, organism-based.
The subject of test [2] is M109. Nature of the test: In vivo antitumor activity expressed as percent median survival time of treated mice to saline treated mice against murine lung carcinoma M109 at 90 mg/kg (ip) on days 1, 5 and 9. The test is classed as functional, Mus musculus.
For test [3], the system named is M109. Nature of the test: In vivo antitumor activity expressed as percent median survival time of treated mice to saline treated mice against murine lung carcinoma M109 at 90 mg/kg (ip) on days 5 and 8. The test is classed as functional, Mus musculus.
Test [4] is filed under the species Rattus norvegicus. Nature of the test: Tested to promote microtubule assembly by tubulin polymerization assay in rat plasma at 37 degree C for 18 hr; Active. The test is classed as functional, organism-based.
Test [5] has as its system M109. Nature of the test: In vivo antitumor activity expressed as percent median survival time of treated mice to saline treated mice against murine lung carcinoma M109 at 30 mg/kg (ip) on days 1, 5 and 9 reference to 3b. The test is classed as functional, Mus musculus.
For test [6], the system named is M109. Nature of the test: In vivo antitumor activity expressed as percent median survival time of treated mice to saline treated mice against murine lung carcinoma M109 at 75 mg/kg (ip) on days 5 and 8 reference to 3i. The test is classed as functional, Mus musculus.
Test [7] concerns M109. Nature of the test: In vivo antitumor activity expressed as percent median survival time of treated mice to saline treated mice against murine lung carcinoma M109 at 50 mg/kg (ip) on days 1, 5 and 9 reference to 3e. The test is classed as functional, Mus musculus.
Test [8] has as its system M109. Nature of the test: In vivo antitumor activity expressed as percent median survival time of treated mice to saline treated control against murine lung carcinoma M109 at 50 mg/kg (ip) on days 5 and 8 reference to 3c. The test is classed as functional, Mus musculus.
The subject of test [9] is M109. Nature of the test: In vivo antitumor activity expressed as percent median survival time of treated mice to saline treated mice against murine lung carcinoma M109 at 75 mg/kg (ip) on days 5 and 8 reference to 3a. The test is classed as functional, Mus musculus.
The subject of test [10] is M109. Nature of the test: In vivo antitumor activity expressed as percent median survival time of treated mice to saline treated mice against murine lung carcinoma M109 at 75 mg/kg (ip) on days 5 and 8 reference to 3h. The test is classed as functional, Mus musculus.
The subject of test [11] is M109. Nature of the test: In vivo antitumor activity expressed as percent median survival time of treated mice to saline treated mice against murine lung carcinoma M109 at 30 mg/kg (ip) on days 1, 5 and 9 reference to 3f. The test is classed as functional, Mus musculus.
Test [12] deals with M109. Nature of the test: In vivo antitumor activity expressed as percent median survival time of treated mice to saline treated mice against murine lung carcinoma M109 at 30 mg/kg (ip) on days 1, 5 and 9 reference to 3d. The test is classed as functional, Mus musculus.
The test system of test [13] is M109. Nature of the test: In vivo antitumor activity expressed as percent median survival time of treated mice to saline treated mice against murine lung carcinoma M109 at 75 mg/kg (ip) on days 5 and 8 reference to 3g. The test is classed as functional, Mus musculus.

Each structure is given as a SMILES string. The source made the active and inactive calls. The calls are words filed in the database; no cut-off is given here.

As to `CC(=O)O[C@H]1C(=O)[C@@]2(C)C([C@H](OC(=O)c3ccccc3)[C@]3(O)C[C@H](OC(=O)[C@H](OC(=O)OCCl)[C@@H](NC(=O)c4ccccc4)c4ccccc4)C(C)=C1C3(C)C)[C@]1(OC(C)=O)COC1C[C@@H]2O` (stereo partly specified), in the test on HCT-116, the IC50 (commonly the concentration at which inhibition is half-maximal) was found to be 30 nM. Also, in the test filed under Rattus norvegicus [1], the result was inactive. The T/C – broadly, the ratio of treated to control – in the test with M109 [2] amounted to 275%.

For the compound `C=C(C)OC(=O)O[C@@H](C(=O)O[C@H]1C[C@@]2(O)[C@@H](OC(=O)c3ccccc3)C3[C@]4(OC(C)=O)COC4C[C@H](O)[C@@]3(C)C(=O)[C@H](OC(C)=O)C(=C1C)C2(C)C)[C@@H](NC(=O)c1ccccc1)c1ccccc1` (stereo partly specified), in the test with M109 [3], the T/C is listed as 235%. For the same compound, the 50% inhibitory concentration (IC50) in the test on HCT-116 is < 15 nM. For the same compound, the outcome in the test filed under Rattus norvegicus [1] was inactive.

Compound `CC(=O)O[C@H]1C(=O)[C@@]2(C)C([C@H](OC(=O)c3ccccc3)[C@]3(O)C[C@H](OC(=O)[C@H](OC(=O)Oc4ccccc4)[C@@H](NC(=O)c4ccccc4)c4ccccc4)C(C)=C1C3(C)C)[C@]1(OC(C)=O)COC1C[C@@H]2O` (stereo partly specified) had a T/C with M109 [3] of 203%. The concentration for half-maximal inhibition (IC50) in the test on HCT-116 amounted to 7 nM. For the same compound, the outcome in the test listed under Rattus norvegicus [1] was inactive.

For `C=COC(=O)O[C@@H](C(=O)O[C@H]1C[C@@]2(O)[C@@H](OC(=O)c3ccccc3)C3[C@]4(OC(C)=O)COC4C[C@H](O)[C@@]3(C)C(=O)[C@H](OC(C)=O)C(=C1C)C2(C)C)[C@@H](NC(=O)c1ccccc1)c1ccccc1` (stereo partly specified), the 50% inhibitory concentration (IC50) in the test on HCT-116 worked out at 40 nM. Besides, the result in the test filed under Rattus norvegicus [1] was inactive. Besides, in the test with M109 [2], the T/C is reported as >475%.

Turning to `COC(=O)O[C@@H](C(=O)O[C@H]1C[C@@]2(O)[C@@H](OC(=O)c3ccccc3)C3[C@]4(OC(C)=O)COC4C[C@H](O)[C@@]3(C)C(=O)[C@H](OC(C)=O)C(=C1C)C2(C)C)[C@@H](NC(=O)c1ccccc1)c1ccccc1` (stereo partly specified), the result in the test filed under Rattus norvegicus [4] was Active. The T/C in the test with M109 [3] came out at 162%. Further, in the test on HCT-116, the IC50 was > 80 nM.

Compound `CC(=O)O[C@H]1C(=O)[C@@]2(C)C([C@H](OC(=O)c3ccccc3)[C@]3(O)C[C@H](OC(=O)[C@H](OC(=O)OCc4ccccc4)[C@@H](NC(=O)c4ccccc4)c4ccccc4)C(C)=C1C3(C)C)[C@]1(OC(C)=O)COC1C[C@@H]2O` (stereo partly specified) gave an IC50 in the test on HCT-116 of 30 nM. Moreover, the outcome in the test listed under Rattus norvegicus [1] was inactive. The T/C in the test on M109 [2] amounted to 310%.

On to `CC(=O)O[C@H]1C(=O)[C@@]2(C)[C@H]([C@H](OC(=O)c3ccccc3)[C@]3(O)C[C@H](OC(=O)[C@H](O)[C@@H](NC(=O)c4ccccc4)c4ccccc4)C(C)=C1C3(C)C)[C@]1(OC(C)=O)CO[C@@H]1C[C@@H]2O` [PACLITAXEL], for which the T/C is listed as 275% in the test on M109 [5]; 262% with M109 [6]; 270% with M109 [7]; 197% with M109 [8]; 276% in the test on M109 [9]; 262% in the test with M109 [10]. For the same compound, the T/C in the test with M109 [11] came out at 275%; in the test with M109 [12], 275%; with M109 [13] it was 262%.

For `CC(=O)O[C@H]1C(=O)[C@@]2(C)C([C@H](OC(=O)c3ccccc3)[C@]3(O)C[C@H](OC(=O)[C@H](OC(=O)OC(C)C)[C@@H](NC(=O)c4ccccc4)c4ccccc4)C(C)=C1C3(C)C)[C@]1(OC(C)=O)COC1C[C@@H]2O` (stereo partly specified), the T/C in the test on M109 [3] worked out at 247%. Moreover, the IC50 in the test with HCT-116 is > 80 nM. In addition, in the test listed under Rattus norvegicus [1], the outcome was inactive.

`CCOC(=O)O[C@@H](C(=O)O[C@H]1C[C@@]2(O)[C@@H](OC(=O)c3ccccc3)C3[C@]4(OC(C)=O)COC4C[C@H](O)[C@@]3(C)C(=O)[C@H](OC(C)=O)C(=C1C)C2(C)C)[C@@H](NC(=O)c1ccccc1)c1ccccc1` (stereo partly specified): the result in the test listed under Rattus norvegicus [4] was Active. The compound also gave a half-inhibitory concentration (IC50) in the test with HCT-116 of 30 nM. Also, in the test with M109 [2], the T/C is listed as >475%.

The compound `CC(=O)O[C@H]1C(=O)[C@@]2(C)C([C@H](OC(=O)c3ccccc3)[C@]3(O)C[C@H](OC(=O)[C@H](OC(=O)Oc4cccc(N(C)C)c4)[C@@H](NC(=O)c4ccccc4)c4ccccc4)C(C)=C1C3(C)C)[C@]1(OC(C)=O)COC1C[C@@H]2O` (stereo partly specified) displayed a T/C in the test on M109 [3] of 226%. Besides, half-maximal inhibition with HCT-116 (IC50) required 16 nM. Further, in the test listed under Rattus norvegicus [1], the outcome was inactive.
